# Experiments:
# [1] = molecular target: chorismate-pyruvate lyase of Azotobacter vinelandii (Azotobacter vinelandii, UniProt C1DK46); experiment: Product inhibition of chorismate-pyruvate lyase activity by 4-HBA (IC50); assay type: biochemical; conditions: cell lysate supernatant of strain HBA19
# Procedure: (§1) Each kind of the bacterial cells cultured and proliferated as above was collected by centrifugation (8,000 rpm, 4° C., 10 minutes). After disrupting the bacterial cells by sonication, centrifugation (15,000 rpm, 4° C., 20 minutes) was performed. Using the supernatant of the cell lysate as a crude enzyme liquid, chorismate-pyruvate lyase activity was determined by the following method. The crude enzyme liquid, 50 mM Tris-HCl (pH 7.5), 0.5 mM of chorismate Ba salt, 0.2 mM of NADH, 0.2 M of NaCl and 5 units of lactate dehydrogenase were mixed, the reaction was allowed to proceed at 33° C., and the decrease in absorbance of NADH at 340 nm was monitored to analyze the initial rate of the reaction. From the initial rate of the reaction and the protein concentration, the specific activity was calculated (the amount of the enzyme that produces 1 μmol of 4-HBA per minute was defined as 1 unit). (After the reaction mixture was filtered, the resulting 4-HBA was subjected to HPLC for direct detection of the peak of 4-HBA (Cosmosil C18 ARII made by Nacalai Tesque, mobile phase: 20% methanol and 0.07% perchloric acid) to separately confirm that the two assay methods were similar in quantitative performance.)
# (§2) Using the supernatants of the cell lysates of the strains of HBA-1 to HBA-21 prepared in Example 2, inhibition by the product, 4-HBA, was examined.
# [2] = molecular target: chorismate-pyruvate lyase of Citrobacter koseri (Citrobacter koseri, UniProt A8AN89); experiment: as above; assay type: biochemical; conditions: cell lysate supernatant of strain HBA14
# Chain of chorismate-pyruvate lyase of Citrobacter koseri (A8AN89 whole entry, looked up): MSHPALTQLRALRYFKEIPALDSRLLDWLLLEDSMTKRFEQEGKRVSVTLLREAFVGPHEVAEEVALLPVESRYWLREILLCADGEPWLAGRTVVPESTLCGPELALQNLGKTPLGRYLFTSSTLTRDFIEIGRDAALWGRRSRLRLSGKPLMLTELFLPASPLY
# Procedure: as §1, §2
# [3] = molecular target: T1, chorismate-pyruvate lyase of Cronobacter sakazakii (Cronobacter sakazakii, UniProt A7MPN9); experiment: as above; assay type: biochemical; conditions: cell lysate supernatant of strain HBA12
# T1 construct: 5′-[…]-3′
# T1 sequence (A7MPN9 whole entry, looked up): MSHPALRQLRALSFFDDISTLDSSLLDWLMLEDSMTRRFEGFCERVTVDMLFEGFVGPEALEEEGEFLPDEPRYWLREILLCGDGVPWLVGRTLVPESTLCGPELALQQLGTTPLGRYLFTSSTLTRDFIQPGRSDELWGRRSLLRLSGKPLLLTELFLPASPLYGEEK
# Procedure: as §1, §2
# [4] = molecular target: chorismate-pyruvate lyase of Cupriavidus taiwanensis (Cupriavidus taiwanensis, UniProt B3R6T5); experiment: as above; assay type: biochemical
# Chain of chorismate-pyruvate lyase of Cupriavidus taiwanensis (B3R6T5 entry or part of it): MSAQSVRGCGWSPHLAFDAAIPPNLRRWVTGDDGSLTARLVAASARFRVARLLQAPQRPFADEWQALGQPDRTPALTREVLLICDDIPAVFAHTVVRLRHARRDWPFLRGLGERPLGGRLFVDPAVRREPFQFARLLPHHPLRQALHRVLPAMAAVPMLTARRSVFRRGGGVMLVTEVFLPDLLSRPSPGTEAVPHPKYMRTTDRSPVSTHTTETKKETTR
# Procedure: as §1, §2
# [5] = molecular target: chorismate-pyruvate lyase of Enterobacter aerogenes (Klebsiella aerogenes, UniProt A0A0H3FPH2); experiment: as above; assay type: biochemical; conditions: cell lysate supernatant of strain HBA15
# Chain of chorismate-pyruvate lyase of Enterobacter aerogenes (A0A0H3FPH2 entry or part of it): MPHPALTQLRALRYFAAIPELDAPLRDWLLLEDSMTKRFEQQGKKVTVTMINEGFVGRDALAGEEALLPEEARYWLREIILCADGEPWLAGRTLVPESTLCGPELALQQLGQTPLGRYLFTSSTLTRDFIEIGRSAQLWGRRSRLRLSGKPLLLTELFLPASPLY
# Procedure: as §1, §2
# [6] = molecular target: chorismate-pyruvate lyase of Enterobacter cloacae (Enterobacter cloacae, UniProt A0A0H3CH24); experiment: as above; assay type: biochemical; conditions: cell lysate supernatant of strain HBA16
# Chain of chorismate-pyruvate lyase of Enterobacter cloacae (A0A0H3CH24 entry or part of it): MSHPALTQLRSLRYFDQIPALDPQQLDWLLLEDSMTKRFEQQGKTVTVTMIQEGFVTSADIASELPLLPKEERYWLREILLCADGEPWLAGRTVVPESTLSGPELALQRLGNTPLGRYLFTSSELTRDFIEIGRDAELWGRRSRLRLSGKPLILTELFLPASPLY
# Procedure: as §1, §2
# [7] = molecular target: T2, chorismate-pyruvate lyase of Escherichia coli (Escherichia coli, UniProt P26602); experiment: as above; assay type: biochemical; conditions: cell lysate supernatant of strain HBA8
# T2 construct: made in house; host or cells: Corynebacterium glutamicum R (crude cell-lysate supernatant)
# T2 sequence (P26602 whole entry): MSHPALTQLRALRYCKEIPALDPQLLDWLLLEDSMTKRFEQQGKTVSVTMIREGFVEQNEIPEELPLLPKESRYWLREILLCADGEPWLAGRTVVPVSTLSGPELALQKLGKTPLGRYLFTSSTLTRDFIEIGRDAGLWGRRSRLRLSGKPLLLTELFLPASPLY
# Procedure: as §1, §2
# [8] = molecular target: chorismate-pyruvate lyase of Escherichia fergusonii (Escherichia fergusonii, UniProt B7LL11); experiment: as above; assay type: biochemical; conditions: cell lysate supernatant of strain HBA9
# Chain of chorismate-pyruvate lyase of Escherichia fergusonii (B7LL11 entry or part of it): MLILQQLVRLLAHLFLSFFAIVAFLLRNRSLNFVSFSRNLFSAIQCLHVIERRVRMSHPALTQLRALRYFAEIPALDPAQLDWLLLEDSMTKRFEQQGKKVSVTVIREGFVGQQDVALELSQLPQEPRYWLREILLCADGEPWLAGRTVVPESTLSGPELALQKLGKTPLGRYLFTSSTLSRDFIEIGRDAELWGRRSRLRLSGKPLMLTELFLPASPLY
# Procedure: as §1, §2
# [9] = molecular target: chorismate-pyruvate lyase of Morganella morganii (Morganella morganii, UniProt M1SIE1); experiment: as above; assay type: biochemical; conditions: cell lysate supernatant of strain HBA18
# Chain of chorismate-pyruvate lyase of Morganella morganii (M1SIE1 entry or part of it): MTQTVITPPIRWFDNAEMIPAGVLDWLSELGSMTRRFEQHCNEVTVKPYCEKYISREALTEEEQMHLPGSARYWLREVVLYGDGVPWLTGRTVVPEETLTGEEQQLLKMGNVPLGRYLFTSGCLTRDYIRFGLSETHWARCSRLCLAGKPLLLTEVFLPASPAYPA
# Procedure: as §1, §2
# [10] = molecular target: chorismate-pyruvate lyase of Pantoea ananatis (Pantoea ananatis, UniProt A0ACE3JNM4); experiment: as above; assay type: biochemical; conditions: cell lysate supernatant of strain HBA1
# Chain of chorismate-pyruvate lyase of Pantoea ananatis (A0ACE3JNM4 1-170): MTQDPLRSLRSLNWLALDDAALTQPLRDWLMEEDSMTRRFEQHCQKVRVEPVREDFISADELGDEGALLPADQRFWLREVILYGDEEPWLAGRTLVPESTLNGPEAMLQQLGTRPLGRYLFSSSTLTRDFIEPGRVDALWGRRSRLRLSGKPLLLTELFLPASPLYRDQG
# Procedure: as §1, §2
# [11] = molecular target: chorismate-pyruvate lyase of Providencia alcalifaciens (Providencia alcalifaciens, UniProt B6XE56); experiment: as above; assay type: biochemical; conditions: cell lysate supernatant of strain HBA6
# Chain of chorismate-pyruvate lyase of Providencia alcalifaciens (B6XE56 1-167): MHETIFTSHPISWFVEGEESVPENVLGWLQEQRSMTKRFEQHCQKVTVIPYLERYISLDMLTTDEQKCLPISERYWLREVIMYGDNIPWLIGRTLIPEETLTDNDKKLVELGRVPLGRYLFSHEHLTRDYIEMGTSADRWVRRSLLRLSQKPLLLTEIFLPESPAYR
# Procedure: as §1, §2
# [12] = molecular target: chorismate-pyruvate lyase of Providencia burhodogranariea (Providencia burhodogranariea, UniProt K8VY45); experiment: as above; assay type: biochemical; conditions: cell lysate supernatant of strain HBA7
# Chain of chorismate-pyruvate lyase of Providencia burhodogranariea (K8VY45 entry or part of it): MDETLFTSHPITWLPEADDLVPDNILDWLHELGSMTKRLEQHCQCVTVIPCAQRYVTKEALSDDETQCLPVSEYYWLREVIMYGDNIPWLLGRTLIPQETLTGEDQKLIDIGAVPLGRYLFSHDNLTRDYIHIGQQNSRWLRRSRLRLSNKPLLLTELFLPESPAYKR
# Procedure: as §1, §2
# [13] = molecular target: chorismate-pyruvate lyase of Providencia rustigianii (Providencia rustigianii, UniProt D1P752); experiment: as above; assay type: biochemical; conditions: cell lysate supernatant of strain HBA2
# Chain of chorismate-pyruvate lyase of Providencia rustigianii (D1P752 1-167): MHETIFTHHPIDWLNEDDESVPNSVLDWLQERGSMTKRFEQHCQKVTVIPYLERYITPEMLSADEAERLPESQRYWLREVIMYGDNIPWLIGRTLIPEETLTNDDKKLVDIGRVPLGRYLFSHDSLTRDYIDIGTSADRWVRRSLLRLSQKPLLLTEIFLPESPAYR
# Procedure: as §1, §2
# [14] = molecular target: chorismate-pyruvate lyase of Providencia sneebia (Providencia sneebia, UniProt K8VZZ4); experiment: as above; assay type: biochemical; conditions: cell lysate supernatant of strain HBA4
# Chain of chorismate-pyruvate lyase of Providencia sneebia (K8VZZ4 1-168): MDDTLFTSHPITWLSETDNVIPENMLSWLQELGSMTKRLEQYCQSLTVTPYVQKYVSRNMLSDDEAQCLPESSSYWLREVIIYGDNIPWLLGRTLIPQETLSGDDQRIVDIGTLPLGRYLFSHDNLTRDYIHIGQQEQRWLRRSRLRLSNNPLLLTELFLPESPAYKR
# Procedure: as §1, §2
# [15] = molecular target: chorismate-pyruvate lyase of Providencia stuartii (Providencia stuartii, UniProt A0A1S1HSD5); experiment: as above; assay type: biochemical; conditions: cell lysate supernatant of strain HBA3
# Chain of chorismate-pyruvate lyase of Providencia stuartii (A0A1S1HSD5 entry or part of it): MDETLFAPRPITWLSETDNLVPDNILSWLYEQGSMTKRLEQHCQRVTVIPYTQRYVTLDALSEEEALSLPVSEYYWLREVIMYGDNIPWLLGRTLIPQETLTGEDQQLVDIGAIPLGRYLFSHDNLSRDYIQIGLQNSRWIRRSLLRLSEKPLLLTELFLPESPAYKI
# Procedure: as §1, §2
# [16] = molecular target: chorismate-pyruvate lyase of Pseudoalteromonas haloplanktis (Pseudoalteromonas haloplanktis, UniProt A0A9W4VR20, L6V); experiment: as above; assay type: biochemical
# Chain of chorismate-pyruvate lyase of Pseudoalteromonas haloplanktis (A0A9W4VR20 entry or part of it L6V): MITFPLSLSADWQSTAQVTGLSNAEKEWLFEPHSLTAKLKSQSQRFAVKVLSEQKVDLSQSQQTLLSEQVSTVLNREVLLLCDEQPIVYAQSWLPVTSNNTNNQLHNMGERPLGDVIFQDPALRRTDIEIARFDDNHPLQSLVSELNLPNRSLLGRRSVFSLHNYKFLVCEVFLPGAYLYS
# Procedure: as §1, §2
# [17] = molecular target: chorismate-pyruvate lyase of Pseudoalteromonas piscicida (Pseudoalteromonas piscicida, UniProt A0ABN5CDX6, M1V); experiment: as above; assay type: biochemical; conditions: cell lysate supernatant of strain HBA10
# Chain of chorismate-pyruvate lyase of Pseudoalteromonas piscicida (A0ABN5CDX6 1-160, stated change not applied): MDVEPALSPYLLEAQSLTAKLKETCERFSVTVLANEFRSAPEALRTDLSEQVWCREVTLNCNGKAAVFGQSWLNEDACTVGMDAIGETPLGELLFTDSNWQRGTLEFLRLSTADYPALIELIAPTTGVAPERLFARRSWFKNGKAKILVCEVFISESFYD
# Procedure: as §1, §2
# [18] = molecular target: chorismate-pyruvate lyase of Pseudomonas putida (Pseudomonas putida, UniProt Q88C66); experiment: as above; assay type: biochemical; conditions: cell lysate supernatant of strain HBA17
# Chain of chorismate-pyruvate lyase of Pseudomonas putida (Q88C66 whole entry): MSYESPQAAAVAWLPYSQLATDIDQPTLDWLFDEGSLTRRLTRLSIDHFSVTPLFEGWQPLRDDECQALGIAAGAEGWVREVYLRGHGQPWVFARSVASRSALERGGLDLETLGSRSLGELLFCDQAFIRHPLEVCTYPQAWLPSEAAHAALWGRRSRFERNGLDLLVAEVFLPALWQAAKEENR
# Procedure: as §1, §2
# [19] = molecular target: chorismate-pyruvate lyase of Shewanella putrefaciens (Shewanella putrefaciens, UniProt A0ABX8XB71); experiment: as above; assay type: biochemical; conditions: cell lysate supernatant of strain HBA20
# Chain of chorismate-pyruvate lyase of Shewanella putrefaciens (A0ABX8XB71 entry or part of it): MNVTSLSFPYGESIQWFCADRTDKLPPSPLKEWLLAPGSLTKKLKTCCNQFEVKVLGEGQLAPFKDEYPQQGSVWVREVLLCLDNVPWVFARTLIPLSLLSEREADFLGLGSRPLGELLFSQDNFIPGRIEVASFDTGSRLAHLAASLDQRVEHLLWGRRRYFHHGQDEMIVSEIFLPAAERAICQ
# Procedure: as §1, §2
# [20] = system: Escherichia coli JM109; experiment: Growth inhibition test in aerobic culture (influence of 4-HBA); assay type: cell-based; conditions: LB liquid medium, 37° C., OD610
# Procedure: (§3) A growth inhibition test in aerobic culture was performed to examine the influence of 4-HBA on Corynebacterium glutamicum, Escherichia coli, Pseudomonas putida, and Rhodobacter sphaeroides. Pseudomonas putida S12, which was used for the test, is reported to be a solvent-resistant strain to produce 4-HBA via tyrosine.
# Escherichia coli JM109 was applied to LB agar medium (1% polypeptone, 0.5% yeast extract, 0.5% NaCl and 1.5% agar) and was left stand in the dark at 37° C. for 15 hours.
# An inoculation loop of the Escherichia coli JM109 grown on a plate as above was applied to LB liquid medium (1% polypeptone, 0.5% yeast extract, and 0.5% NaCl), and aerobic culture was performed with shaking at 37° C. for 13 hours.
# (§4) The Escherichia coli JM109 grown in the above conditions was inoculated into 100 mL of LB liquid medium in such a way that the initial bacterial cell concentration would be OD=0.05, 4-HBA was added at the same time in such a way that the final concentration would be 0, 100, or 200 mM, and aerobic culture was performed with shaking at 37° C. The growth of the bacterial cells was determined by absorbance measurement at OD610.
# [21] = system: Pseudomonas putida S12; experiment: as above; assay type: cell-based; conditions: 200 mM 4-HBA, LB liquid medium, 30° C., OD610
# Procedure: as §3
# Pseudomonas putida S12 was applied to LB agar medium (1% polypeptone, 0.5% yeast extract, 0.5% NaCl and 1.5% agar) and was left stand in the dark at 30° C. for 15 hours.
# An inoculation loop of the Pseudomonas putida S12 grown on a plate as above was applied to LB liquid medium (1% polypeptone, 0.5% yeast extract, and 0.5% NaCl), and aerobic culture was performed with shaking at 30° C. for 13 hours.
# as §4, with “Pseudomonas putida S12” for “Escherichia coli JM109”, “OD610=0.05,” for “OD=0.05,”, “100, 200,” for “100,”, “300” for “200”, “30°” for “37°”
# [22] = system: Rhodobacter sphaeroides; experiment: as above; assay type: cell-based; conditions: LB liquid medium, 30° C., OD610
# Procedure: as §3
# Rhodobacter sphaeroides was applied to LB agar medium (1% polypeptone, 0.5% yeast extract, 0.5% NaCl and 1.5% agar) and was left stand in the dark at 30° C. for 20 hours.
# An inoculation loop of the Rhodobacter sphaeroides grown on a plate as above was applied to LB liquid medium (1% polypeptone, 0.5% yeast extract, and 0.5% NaCl), and aerobic culture was performed with shaking at 30° C. for 13 hours.
# as §4, with “Rhodobacter sphaeroides” for “Escherichia coli JM109”, “OD=0.1,” for “OD=0.05,”, “30°” for “37°”
# [23] = system: Corynebacterium glutamicum R; experiment: as above; assay type: cell-based; conditions: for Growth of Corynebacterium glutamicum: aerobic, A liquid medium, 33° C., OD610
# Procedure: as §3
# Corynebacterium glutamicum was applied to A agar medium (2 g of (NH2)2CO, 7 g of (NH4)2SO4, 0.5 g of KH2PO4, 0.5 g of K2HPO4, 0.5 g of MgSO4.7H2O, 1 mL of 0.06% (w/v) Fe2SO4.7H2O+0.042% (w/v) MnSO4.2H2O, 1 mL of 0.02% (w/v) biotin solution, 2 mL of 0.01% (w/v) thiamin solution, 2 g of yeast extract, 7 g of vitamin assay casamino acid, 40 g of glucose, and 15 g of agar were suspended in 1 L of distilled water) and was left stand in the dark at 33° C. for 15 hours.
# An inoculation loop of Corynebacterium glutamicum R strain grown on a plate as above was inoculated into a test tube containing 10 mL of A liquid medium (2 g of (NH2)2CO, 7 g of (NH4)2SO4, 0.5 g of KH2PO4, 0.5 g of K2HPO4, 0.5 g of MgSO4.7H2O, 1 mL of 0.06% (w/v) Fe2SO4.7H2O+0.042% (w/v) MnSO4.2H2O, 1 mL of 0.02% (w/v) biotin solution, 2 mL of 0.01% (w/v) thiamin solution, 2 g of yeast extract, 7 g of vitamin assay casamino acid, and 40 g of glucose were suspended in 1 L of distilled water) and was aerobically cultured with shaking at 33° C. for 15 hours.
# The Corynebacterium glutamicum R strain grown in the above conditions was inoculated into 10 mL of A liquid medium in such a way that the initial bacterial cell concentration would be OD610=0.05, 4-HBA was added at the same time in such a way that the final concentration would be 0, 100, 200, 250, or 300 mM, and aerobic culture was performed with shaking at 33° C. The growth of the bacterial cells was determined by absorbance measurement at OD610.
# Chain of chorismate-pyruvate lyase of Azotobacter vinelandii (C1DK46 1-183): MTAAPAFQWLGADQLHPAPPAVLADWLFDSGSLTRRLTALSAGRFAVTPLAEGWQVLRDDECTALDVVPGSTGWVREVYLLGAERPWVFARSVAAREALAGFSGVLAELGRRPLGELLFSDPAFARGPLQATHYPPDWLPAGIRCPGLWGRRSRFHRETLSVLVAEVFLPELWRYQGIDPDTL
compound,measurement,setting,value
"O=C(O)c1ccc(O)cc1 [Strain 4-HBA, 4-hydroxybenzoic acid]",IC50,[1],69 µM
same,IC50,[2],83 µM
same,IC50,[3],76 µM
same,IC50,[4],149 µM
same,IC50,[5],73 µM
same,IC50,[6],105 µM
same,IC50,[7],67 µM
same,IC50,[8],79 µM
same,IC50,[9],61 µM
same,IC50,[10],69 µM
same,IC50,[11],301 µM
same,IC50,[12],401 µM
same,IC50,[13],364 µM
same,IC50,[14],338 µM
same,IC50,[15],368 µM
same,IC50,[16],78 µM
same,IC50,[17],73 µM
same,IC50,[18],68 µM
same,IC50,[19],130 µM
same,Growth of Escherichia coli,[20]; 100 mM 4-HBA,significantly affected
same,Growth of Escherichia coli,[20]; 200 mM 4-HBA,completely inhibited
same,Growth of Pseudomonas putida S12,[21],completely inhibited
same,Growth of Rhodobacter sphaeroides,[22]; 100 mM 4-HBA,completely inhibited
same,Growth of Rhodobacter sphaeroides,[22]; 200 mM 4-HBA,completely inhibited
same,Growth of Corynebacterium glutamicum,[23]; 200 mM 4-HBA,able to grow
same,"Growth, % of the OD610 of wild strain","[23]; 250 mM 4-HBA, 28 hours after the start of the culture, same extent as in the presence of 200 mM 4-HBA, data not shown",about 65%
same,Growth of Corynebacterium glutamicum,[23]; 250 mM 4-HBA,able to grow

# Reference: patent US10017791B2, “Coryneform bacterium transformant and process for producing 4-hydroxybenzoic acid or salt thereof using the same” (GREEN PHENOL DEVELOPMENT CO., LTD., priority 2014, dated 2018)
